Results: patent publication US5854244A, “Melamine derivatives for use in the treatment of cancer” (priority 1992, dated 1998)
pIC50: −log10 of the molar value. Like-named read-outs stand apart in the source and are kept apart here.

Assays:
[1] = system: CH1 human epithelial ovarian cancer; experiment: MTT cytotoxicity assay, CH1; assay type: cell-based; conditions: continual drug exposure, parenthesis = standard deviation or ± values
Description: (§1) The cytotoxicity of CB7646 and CB7683 was compared with trimelamol against mammalian tumour cell lines using the MTT assay. This assay is based upon the selective ability of living but not dead cells to reduce the tetrazolium salt MTT (3-[4,5-dimethylthiazol-2-yl]-25-diphenyl tetrazolium bromide) to purple formazan (Mosmann et al, 1983, J. Immun. Methods 65; 55-63; Carmichael et al (1987) Cancer Res. 47; 936-942). Cell lines were grown in culture with continual drug exposure. The IC50 values (in μm) of the compounds (i.e. concentration giving 50% inhibition of cell growth as compared with untreated control) were determined, and are shown in Table 2. Figures in parenthesis refer to standard deviation or ± values for 2 or more measurements.
CH1, 41M human epithelial ovarian cancer

[2] = Dimer/polymer formation in solution (overnight standing); assay type: physicochemical; conditions: aqueous solution, 4-5 mg/ml, overnight (14-16 hours), room temperature
Description: (ii) Dimer/polymer Formation in Solution
An aqueous solution of CB7646 and trimelamol in 4ml aliquots at a concentration of 4-5 mg/ml was left to stand overnight (14-16 hours) at room temperature.

[3] = system: Walker 256 rat mammary carcinoma; experiment: MTT cytotoxicity assay, Walker 256; assay type: cell-based
Description: (§2) The cytotoxicity of CB7646 and CB7683 was compared with trimelamol against mammalian tumour cell lines using the MTT assay. […] Cell lines were grown in culture with continual drug exposure. […] Figures in parenthesis refer to standard deviation or ± values for 2 or more measurements.

[4] = Stability in solution (half-life by HPLC)
Description: Compounds were dissolved in DMSO to a concentration of 50 mM. Aliquots were then dispersed into the appropriate medium to give a final concentration of 100 μM in a volume of about 10 ml. […] (to simulate room temperature) or at 37° C. in water, 0.9% NaCl or 5% dextrose. Aliquots were removed from each preparation at intervals to assess their stability (i.e. half-life, T^1/2) which was measured using HPLC analysis. This entailed an isocratic elution using a mobile phase comprising 10% acetonitrile, 90% 0.05M ammonium bicarbonate. The 15 cm column was packed with C8 octyl Spherisorb material. The column was encased in a cooling cabinet which was maintained at 14°-17° C. Standards of freshly prepared solutions were run throughout the analysis period by way of controls.
T^1/2 measurements were read from a semi-logarithmic plot of peak area (y) versus time (x).

Lethality (LD50) in mice = conditions: mouse, in vivo
From the text: (§3) The anti-tumour activity of CB 7646 prepared in accordance with Example 1 against ADJ/PC6 tumour in mice were compared with that of trimelamol. An implant of 1 mm^3 of tumour was made on day 1. On day 20, animals bearing tumours of comparative size were placed into groups of 4 and treated with drug on 5 consecutive days, and then left until day 30. Tumours from the treated and controls were dissected and weighed as a measure of tumour growth. Compounds were given in 5% DMSO/dextrose.
(§4) Example 6 was repeated to obtain more precise LD50 values.

PC6 murine plasmacytoma = experiment: MTT cytotoxicity assay, PC6; assay type: cell-based; conditions: Mus musculus, continual drug exposure, parenthesis = standard deviation or ± values
Description: as §1
PC6 murine plasmacytoma

[5] = system: H69 human small cell lung cancer; experiment: MTT cytotoxicity assay, H69; assay type: cell-based
Description: as §2

ADJ/PC6 tumour = experiment: Antitumour activity towards the ADJ/PC6 tumour in mice; assay type: in vivo; conditions: for % Inhibition (Tumour wt as % of Control Value): 5 consecutive days, day 30; for T.I.: Example 7 (repeat of Example 6); for ED90: Mus musculus
From the text: as §3, §4

PXN65 Xenografts = experiment: In vivo activity against PXN65 ovarian cancer xenografts; set-up: species or system mice; conditions: for time to tumour regression: treated mice
Description: CB7646 was tested in vivo against ovarian cancer xenografts of the PXN65 cell line transplanted into mice, substantially in accordance with Harrap et al, Annals of Oncology, 1990, 1;65-76. PXN65 is a cisplatin-sensitive line.

[6] = Judson et al 1989, 1991; cited from earlier work
ovarian carcinomas = conditions: cited from earlier work
[7] = WALKER 256, MTT, continual drug exposure, parenthesis = standard deviation or ± values, read-out: IC50
[8] = Example 7 (repeat of Example 6)
[9] = MTT, continual drug exposure, parenthesis = standard deviation or ± values, read-out: IC50
[10] = ADJ/PC6, Example 7 (repeat of Example 6)

Row | SMILES | pIC50 [1] | Dimer/polymer formation (precipitate) [2] | pIC50 [3, 7] | LD50 (Lethality (LD50) in mice; [8]) [mg/kg] | pIC50 (PC6 murine plasmacytoma) | pIC50 [5, 9] | % Inhibition (Tumour wt as % of Control Value) (ADJ/PC6 tumour; 3.25 mg/kg) [%] | % Inhibition (Tumour wt as % of Control Value) (ADJ/PC6 tumour; 6.25 mg/kg) [%] | % Inhibition (Tumour wt as % of Control Value) (ADJ/PC6 tumour; 12.5 mg/kg) [%] | % Inhibition (Tumour wt as % of Control Value) (ADJ/PC6 tumour; 25 mg/kg) [%] | % Inhibition (Tumour wt as % of Control Value) (ADJ/PC6 tumour; 50 mg/kg) [%] | % Inhibition (Tumour wt as % of Control Value) (ADJ/PC6 tumour; 100 mg/kg) [%] | T.I. (ADJ/PC6 tumour) | ED90 (ADJ/PC6 tumour; [10]) [mg/kg] | Deaths (PXN65 Xenografts; 15 mg/kg, 20 doses) | GD (Growth delay) (PXN65 Xenografts; 15 mg/kg, 20 doses) [days] | time to tumour regression (PXN65 Xenografts; PXN65 xenografts) [days] | further results
1 | CNc1nc(N(C)CO)nc(N(C)CO)n1 [CB7646, 2,4-Bis[(hydroxymethyl) (methyl)amino]6-methylamino-1,3,5-triazine] | 4.45 | did not form a precipitate | 4.97 | 142 | 4.60 | 4.83 | 5.6 | -1.0 | 13.7 | 5.6 | 76.8 | 98.0 | 4.6 | 31 | 0 | > 140 | ≤ 28 | pIC50 ([3]; Walker 256, CB7646 prepared by recrystallisation method of Example 2, read-out: IC50 (repeat, recrystallised preparation)): 4.98; half-life at 100 µM ([4]; 0.9% nacl, pH 5, T^1/2, 0.9% NaCl, pH 5.0, r.t.): 16 h; half-life at 100 µM ([4]; 5% dextrose, pH 4, T^1/2, 5% Dextrose, pH 4.0, r.t.): 22 h; half-life at 100 µM ([4]; deionised water, pH 7.5, T^1/2, Deionised water, pH 7.5, r.t.): 18 h; half-life at 100 µM ([4]; deionised water, pH 7.5, T^1/2, deionised water, pH 7.5, 37 °C): 3 h; stability (summary of Table 1) ([4]; relative to trimelamol): superior stability; LD50 (Lethality (LD50) in mice; Example 6): > 100 mg/kg; pIC50 ([5]; CB7646 prepared by recrystallisation method of Example 2, read-out: IC50 (repeat, recrystallised preparation)): 4.78; Therapeutic Index (TI) (ADJ/PC6 tumour; ADJ/PC6 tumour, Example 6): > 1.4; ED90 (ADJ/PC6 tumour; ADJ/PC6, ADJ/PC6 tumour, Example 6): 74 mg/kg; efficacy (summary) (PXN65 Xenografts; PXN65 xenografts, relative to trimelamol): comparable efficacy to trimelamol
2 | OCN(CC(F)(F)F)c1nc(NCC(F)(F)F)nc(N(CO)CC(F)(F)F)n1 [CB7683, 2,4-Bis[(hydroxymethyl)(2,2,2 trifluoroethyl)amino]-6-(2,2,2-trifluoroethyl)amino-1,3,5-triazine] | 4.39 |  |  |  | 4.50 | 5.05 |  |  |  |  |  |  |  |  |  |  |  | 
3 | CN(CO)c1nc(N(C)CO)nc(N(C)CO)n1 [Trimelamol, 2,4,6-tris{(hydroxymethyl) (methyl)amino}-1,3,5-triazine, reference compound] | 4.63 | formed a heavy precipitate | 5.03 | 70 | 4.89 | 5.07 | 0 | 18.2 | 13.7 | 45.5 | 83.9 | 96.0 | 2.9 | 24 | 0 | > 170 | ≤ 28 | half-life at 100 µM ([4]; 0.9% nacl, pH 4.9): 4.55 h; half-life at 100 µM ([4]; 5% dextrose, pH 4): 5.8 h; half-life at 100 µM ([4]; deionised water, pH 7.5): 2 h; polymerisation during Phase I and II clinical trials [6]: proved problematic; half-life of trimelamol activity in humans (ovarian carcinomas; humans, Judson et al 1989): short; clinical activity (ovarian carcinomas; particularly against ovarian carcinomas): clinically active; Deaths (PXN65 Xenografts; 30 mg/kg, 5 doses): 0; GD (Growth delay) (PXN65 Xenografts; 30 mg/kg, 5 doses): > 273 days
